These results are taken from patent US20240360081A1, “SULFONAMIDE OREXIN RECEPTOR AGONISTS AND USES THEREOF” (Jazz Pharmaceuticals Ireland Limited, priority 2021, published 2024).

For the experiment, the target named is T1, human recombinant OX2 (hOX2) receptor expressed in CHO cells (Homo sapiens, UniProt O43614).
T1 construct: host or cells: CHO cells (hOX2-CHO)
T1 sequence (O43614 1-444): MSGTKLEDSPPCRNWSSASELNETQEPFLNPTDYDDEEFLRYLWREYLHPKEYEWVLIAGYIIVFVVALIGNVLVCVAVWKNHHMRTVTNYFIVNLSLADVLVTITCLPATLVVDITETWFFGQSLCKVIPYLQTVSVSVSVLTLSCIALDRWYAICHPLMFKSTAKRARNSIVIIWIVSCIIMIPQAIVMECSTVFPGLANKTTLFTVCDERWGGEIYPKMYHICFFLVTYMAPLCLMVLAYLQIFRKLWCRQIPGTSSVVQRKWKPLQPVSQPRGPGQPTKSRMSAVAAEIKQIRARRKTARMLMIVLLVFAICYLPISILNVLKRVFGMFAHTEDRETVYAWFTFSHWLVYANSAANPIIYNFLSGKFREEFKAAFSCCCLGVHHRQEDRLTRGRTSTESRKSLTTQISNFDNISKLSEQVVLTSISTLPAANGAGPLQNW
Description: IP-1 accumulation assay (IP-One HTRF) in hOX2-CHO cells. The format is cell-based. The conditions noted are these: 60 min at 37° C., 11 points CRC, response as % of maximal OX-A response. As to the method:
The accumulation of Inositol-1 Monophosphate (IP-1) was measured using IP-One HTRF® Terbium cryptate based assay (Cisbio) in human recombinant OX1 (hOX1) and at OX2 (hOX2) receptors expressed in CHO cells (DiscoverX) according to the manufacturer's instructions for cells tested in suspension.
hOX1-CHO and hOX2-CHO cells were seeded into white 384-well plates at a density of 20,000 cells/well in Hank's Balanced Salt Solution (HBSS) containing 20 mM HEPES pH 7.4, 50 mM, LiCl and 0.1% and Bovine Serum Albumin (BSA).
Compounds of the present disclosure were tested in a 11 points concentration response curve (CRC) serially diluted in neat DMSO at 200 fold concentrations and added by Echo acoustic liquid handling (Labcyte) to the cells (0.5% DMSO final in the assay). After 60 min of incubation at 37° C. detection reagents, IP1-d2 tracer and anti-IP1-cryptate were diluted in lysis buffer according to the manufacturer's descriptions and added to the cells.
Following 60 min incubation at room temperature, time-resolved fluorescence (HTRF) was measured at 615 nm and 665 nm by Envision Multilabel reader (Perkin Elmer) and the HTRF ratio (A665/A615x104) was calculated.
The IP-1 accumulation response was expressed as percentage of the maximal OX-A response.
Curve fitting and EC50 estimations were carried out using a four-parameter logistic model using XLfit Software. Mean data of EC50 are calculated from at least two independent experiments performed in duplicates.
In the Tables, below Category A corresponds to compounds displaying an […]<100 nM, Category B between 100 nM and 1,000 nM, Category C between 1,000 nM and 10,000 nM and Category D above 10,000 nM.
Consider `Cc1cc(C)c(=O)n(C(CNS(C)(=O)=O)CO[C@H]2CC[C@@H](c3ccccc3)CC2)c1` (single isomer, unassigned; isomer 2) [Example 2u, (S or R) N-[2-(3,5-dimethyl-2-oxo-1,2-dihydropyridin-1-yl)-3-{[(CIS)-4-phenylcyclohexyl]oxy}propyl]methanesulfonamide-Isomer 2], for which the 50% effective concentration (EC50) was 1 to 10 µM. On to `Cc1cccn(C(CO[C@H]2CC[C@@H](c3ccccc3)CC2)C(C)NS(C)(=O)=O)c1=O` (single isomer, unassigned; isomer 2) [Example 3b, (2S or 2R) and (3S or 3R) N-[3-(3-methyl-2-oxo-1,2-dihydropyridin-1-yl)-4-{[(CIS)-4-phenylcyclohexyl]oxy}butan-2-yl]methanesulfonamide—Isomer 2], for which the concentration for a half-maximal effect (EC50) lay in the range of 1 to 10 µM.

Take `Cn1cccc(C(CNS(C)(=O)=O)CO[C@H]2CC[C@@H](c3ccccc3)CC2)c1=O` (single isomer, unassigned; isomer 2) [Example 4b, (S or R) N-[2-(1-methyl-2-oxo-1,2-dihydropyridin-3-yl)-3-{[(CIS)-4-phenylcyclohexyl]oxy}propyl]methanesulfonamide—Isomer 2]: the EC50 is above 10 µM. The value for `Cc1cc(C(CNS(=O)(=O)N(C)C)CO[C@H]2CC[C@@H](c3cccc(F)c3)CC2)c(=O)n(C(F)F)c1` (single isomer, unassigned; isomer 2) [Example 5ac, (S or R) 1-(difluoromethyl)-3-[1-[(dimethylsulfamoyl)amino]-3-{[(CIS)-4-(3-fluorophenyl)cyclohexyl]oxy}propan-2-yl]-5-methyl-1,2-dihydropyridin-2-one—Isomer 2] was 0.1 to 1 µM; that for `Cc1cc(C(CNS(C)(=O)=O)CO[C@H]2CC[C@@H](c3cccc(F)c3)CC2)c(=O)n(C)c1` (single isomer, unassigned; isomer 2) [Example 5d, (S or R) N-[2-(1,5-dimethyl-2-oxo-1,2-dihydropyridin-3-yl)-3-{[(CIS)-4-(3-fluorophenyl)cyclohexyl]oxy}propyl]methanesulfonamide—Isomer 2] was 0.1 to 1 µM.

Consider `Cc1cc(C)[n+]([O-])c(C(CNS(C)(=O)=O)CO[C@H]2CC[C@@H](c3ccccc3)CC2)c1` (single isomer, unassigned; isomer 2) [Example 5l, (S or R) 2-[1-methanesulfonamido-3-{[(CIS)-4-phenylcyclohexyl]oxy}propan-2-yl]-4,6-dimethylpyridin-1-ium-1-olate—Isomer 2], for which the half-maximal effective concentration (EC50) is 1 to 10 µM. The value for `Cc1cc(C(CNS(=O)(=O)CF)CO[C@H]2CC[C@@H](c3cccc(F)c3)CC2)c(=O)n(C)c1` (single isomer, unassigned; isomer 2) [Example 5o, (S or R) N-[2-(1,5-dimethyl-2-oxo-1,2-dihydropyridin-3-yl)-3-{[(CIS)-4-(3-fluorophenyl)cyclohexyl]oxy}propyl]-1-fluoromethanesulfonamide—Isomer 2] was 0.1 to 1 µM; that for `Cc1cc(C(CNS(C)(=O)=O)CO[C@H]2CC[C@@H](c3cccc(F)c3)CC2)c(=O)n(C(F)F)c1` (single isomer, unassigned; isomer 2) [Example 5z, (S or R) N-[2-[1-(difluoromethyl)-5-methyl-2-oxo-1,2-dihydropyridin-3-yl]-3-{[(CIS)-4-(3-fluorophenyl)cyclohexyl]oxy}propyl]methanesulfonamide—Isomer 2] was 1 to 10 µM; that for `Cc1cccn(C(CO[C@H]2CC[C@@H](c3ccccc3)CC2)C(C)NS(C)(=O)=O)c1=O` (single isomer, unassigned; isomer 3) [Example 3c, (2S or 2R) and (3R or 3S) N-[3-(3-methyl-2-oxo-1,2-dihydropyridin-1-yl)-4-{[(CIS)-4-phenylcyclohexyl]oxy}butan-2-yl]methanesulfonamide—Isomer 3] was above 10 µM.

Turning to `Cc1cccn(C(CO[C@H]2CC[C@@H](c3ccccc3)CC2)C(C)NS(C)(=O)=O)c1=O` (single isomer, unassigned; isomer 4) [Example 3d, (2R or 2S) and (3S or 3R) N-[3-(3-methyl-2-oxo-1,2-dihydropyridin-1-yl)-4-{[(CIS)-4-phenylcyclohexyl]oxy}butan-2-yl]methanesulfonamide—Isomer 4], the 50% effective concentration (EC50) is 1 to 10 µM.

Consider `CS(=O)(=O)NCC(CO[C@H]1CC[C@@H](c2ccccc2)CC1)n1ccccc1=O` (stereo partly drawn) [Example 1, N-[2-(2-oxo-1,2-dihydropyridin-1-yl)-3-{[(CIS)-4-phenylcyclohexyl]oxy}propyl]methanesulfonamide], for which the EC50 was in the range of 1 to 10 µM. Consider `Cc1cccn(C(CNS(C)(=O)=O)CO[C@H]2CC[C@@H](c3ccccc3)CC2)c1=O` (stereo partly drawn) [Example 1c, N-[2-(3-methyl-2-oxo-1,2-dihydropyridin-1-yl)-3-{[(CIS)-4-phenylcyclo-hexyl]oxy}propyl] methane-sulfonamide], for which the EC50 is 0.1 to 1 µM. To `CCc1cccn(C(CNS(C)(=O)=O)CO[C@H]2CC[C@@H](c3ccccc3)CC2)c1=O` (stereo partly drawn) [Example 2, N-[2-(3-ethyl-2-oxo-1,2-dihydropyridin-1-yl)-3-{[(CIS)-4-phenylcyclohexyl]oxy}propyl]methanesulfonamide] belongs 1 to 10 µM. The value for `Cc1ccn(C(CNS(C)(=O)=O)CO[C@H]2CC[C@@H](c3ccccc3)CC2)n1` (stereo partly drawn) [Example 2aa, N-[2-(3-methyl-1H-pyrazol-1-yl)-3-{[(CIS)-4-phenylcyclohexyl]oxy}propyl]methanesulfonamide] was above 10 µM; that for `Cc1cncn(C(CNS(C)(=O)=O)CO[C@H]2CC[C@@H](c3ccccc3)CC2)c1=O` (stereo partly drawn) [Example 2aj, N-[2-(5-methyl-6-oxo-1,6-dihydropyrimidin-1-yl)-3-{[(CIS)-4-phenylcyclohexyl]oxy}propyl]methanesulfonamide] was above 10 µM; that for `CS(=O)(=O)NCC(CO[C@H]1CC[C@@H](c2ccccc2)CC1)n1c(=O)ccc2ccccc21` (stereo partly drawn) [Example 2ak, N-[2-(2-oxo-1,2-dihydroquinolin-1-yl)-3-{[(CIS)-4-phenylcyclohexyl]oxy}propyl]methanesulfonamide] was above 10 µM.

In the case of `Cc1cc(C)c(=O)n(C(CNS(=O)(=O)C2CC2)CO[C@H]2CC[C@@H](c3cccc(F)c3)CC2)c1` (stereo partly drawn) [Example 2al, N-[2-(3,5-dimethyl-2-oxo-1,2-dihydropyridin-1-yl)-3-{[(CIS)-4-(3-fluorophenyl)cyclohexyl]oxy}propyl]cyclopropanesulfonamide], the half-maximal effective concentration (EC50) was below 0.1 µM. The value for `Cc1cc(C)c(=O)n(C(CNS(=O)(=O)CC(F)F)CO[C@H]2CC[C@@H](c3cccc(F)c3)CC2)c1` (stereo partly drawn) [Example 2ao, N-[2-(3,5-dimethyl-2-oxo-1,2-dihydropyridin-1-yl)-3-{[(CIS)-4-(3-fluorophenyl)cyclohexyl]oxy}propyl]-2,2-difluoroethane-1-sulfonamide] was 0.1 to 1 µM. With `Cc1cc(C)c(=O)n(C(CNS(=O)(=O)CC(F)(F)F)CO[C@H]2CC[C@@H](c3cccc(F)c3)CC2)c1` (stereo partly drawn) [Example 2ap, N-[2-(3,5-dimethyl-2-oxo-1,2-dihydropyridin-1-yl)-3-{[(CIS)-4-(3-fluorophenyl)cyclohexyl]oxy}propyl]-2,2,2-trifluoroethane-1-sulfonamide], the half-maximal effective concentration (EC50) was 0.1 to 1 µM.

For orientation: EC50 means the concentration that produces a half-maximal response.
